In patent US11958887B2, “Gene therapy for tuberous sclerosis” (The General Hospital Corporation, priority 2017, dated 2024):

System: Tsc2^c/c mice injected ICV with AAV1-CBA-Cre
Test: Survival of Tsc2^c/c mice lacking tuberin (AAV1-CBA-Cre ICV) after treatment
Assay type: in vivo
Details: AAV1-CBA-Cre ICV at P0; no cTuberin vector; vigabatrin 200 mg/kg
Experimental: Experimental research protocols were approved by the Institutional Animal Care and Use Committee (IACUC) for the Massachusetts General Hospital (MGH) following the guidelines of the National Institutes of Health for the Care and Use of Laboratory Animals. Experiments were performed on Tsc2^c/c floxed mice (Onda et al., J. Clin. Invest. 104(6):687-695, 1999). In response to Cre recombinase, the Tsc2^c/c alleles are converted to null alleles, and the lacZallele expresses β-galactosidase. These mice have a normal, healthy lifespan.
For vector injections, on the day of birth (postnatal day 0 (P0)) or on P3, neonates were cryo-anesthetized and injected with 1 μl or 2 μl of viral vector AAV1-CBA-Cre into each cerebral lateral ventricle with a glass micropipette ([…] diameter at the tip) using a Narishige® IM300 microinjector at a rate of 2.4 psi/sec (Narshige International, East Meadow, NY). Mice were then placed on a warming pad and returned to their mothers after regaining normal color and full activity typical of newborn mice.
At 3 weeks of age (P21) mice were anesthetized by isoflurane inhalation (3.5% isoflurane in an induction chamber, then maintained anesthetized with 2-3% isoflurane and 1-2 liter/min oxygen for the duration of the experiment). […]

`C=CC(N)CCC(=O)O` (stereo not shown) [vigabatrin] gave a median survival of 27 days.
